Data published in EP0787717A1, “Substituted diaryl dicarboxylic acid diguanidines, process for their preparation, their use as inhibitors of the Na+/H+ exchange as well as medicament or diagnostic agent containing them” (HOECHST AKTIENGESELLSCHAFT, priority 1996, dated 1997).

Target: T1, Na ^+/H ^+-Exchangers von Kaninchenerythrocyten (Oryctolagus cuniculus, UniProt P23791)
T1 construct: den Na ^+-Influx in die Erythrocyten via Na ^+/H ^+-Austausch flammenphotometrisch bestimmen zu können; from tissue; host or cells: Erythrocytes in whole blood from the ear arteries of cholesterol-fed New Zealand White rabbits
Test: Inhibition of the Na+/H+ exchanger of rabbit erythrocytes (amiloride-sensitive sodium influx, flame photometry)
Format: cell-based, Kaninchen
Conditions: hyperosmolar salt-sucrose medium, pH 7,4, 37°C, read-out: IC50 Inhibition des Na ^+/H ^+ -Exchangers
From the text: Inhibition des Na ^+/H ^+-Exchangers von Kaninchenerythrocyten Weiße Neuseeland-Kaninchen (Ivanovas) erhielten eine Standard-Diät mit […] für sechs Wochen, um den Na ^+ /H ^+-Austausch zu aktivieren und so den Na ^+-Influx in die Erythrocyten via Na ^+/H ^+-Austausch flammenphotometrisch bestimmen zu können. Das Blut wurde den Ohrarterien entnommen und durch 25 IE Kalium-Heparin ungerinnbar gemacht. Ein Teil jeder Probe wurde zur Doppelbestimmung des Hämatokrits durch Zentrifugieren benutzt. Aliquots von jeweils 100 µl dienten zur Messung des Na ^+-Ausgangsgehalts der Erythrocyten.
Um den Amilorid-sensitiven Natrium-Influx zu bestimmen, wurden 100 µl jeder Blutprobe in jeweils 5 ml eines hyperosmolaren Salz-Sucrose-Mediums (mmol/l: 140 NaCl, 3 KCl, 150 Sucrose, 0,1 Ouabain, 20 Tris-hydroxymethylaminomethan) bei pH 7,4 und 37°C inkubiert. Die Erythrocyten wurden danach dreimal mit eiskalter MgCl2-Ouabain-Lösung (mmol/l: 112 MgCl2, 0,1 Ouabain) gewaschen und in 2,0 ml destilliertem Wasser hämolysiert. Der intrazelluläre Natriumgehalt wurde flammenphotometrisch bestimmt.
Der Na ^+-Nettoinflux wurde aus der Differenz zwischen Natrium-Ausgangswerten und dem Natriumgehalt der Erythrocyten nach Inkubation errechnet. Der Amiloridhemmbare Natrium-Influx ergab sich aus der Differenz des Natriumgehalts der Erythrocyten nach Inkubation mit und ohne Amilorid 3 x 10^-4 mol/l. Auf diese Weise wurde auch bei den erfindungsgemäßen Verbindungen verfahren.

T1 sequence (P23791 whole entry): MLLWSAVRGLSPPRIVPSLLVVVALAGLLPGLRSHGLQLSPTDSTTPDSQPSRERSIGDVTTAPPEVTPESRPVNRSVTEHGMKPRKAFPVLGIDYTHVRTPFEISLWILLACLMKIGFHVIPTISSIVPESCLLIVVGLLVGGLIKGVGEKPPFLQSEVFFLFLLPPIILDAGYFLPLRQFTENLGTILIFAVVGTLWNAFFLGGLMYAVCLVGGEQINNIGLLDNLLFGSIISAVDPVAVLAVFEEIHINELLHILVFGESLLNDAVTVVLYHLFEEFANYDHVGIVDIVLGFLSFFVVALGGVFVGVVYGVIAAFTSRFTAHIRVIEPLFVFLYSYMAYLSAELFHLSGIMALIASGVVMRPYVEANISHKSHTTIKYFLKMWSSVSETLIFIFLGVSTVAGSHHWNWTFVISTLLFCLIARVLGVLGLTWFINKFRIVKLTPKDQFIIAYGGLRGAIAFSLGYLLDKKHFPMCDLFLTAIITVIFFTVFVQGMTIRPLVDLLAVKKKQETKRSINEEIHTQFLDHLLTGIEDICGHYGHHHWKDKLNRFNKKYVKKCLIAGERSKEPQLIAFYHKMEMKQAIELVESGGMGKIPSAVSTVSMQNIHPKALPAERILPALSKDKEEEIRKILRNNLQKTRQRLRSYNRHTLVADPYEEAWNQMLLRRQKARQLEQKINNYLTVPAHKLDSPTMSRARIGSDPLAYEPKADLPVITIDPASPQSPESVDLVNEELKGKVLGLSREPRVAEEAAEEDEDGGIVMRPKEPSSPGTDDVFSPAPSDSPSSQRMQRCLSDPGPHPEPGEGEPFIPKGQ

For `NC(N)=NC(=O)c1ccc(S(=O)(=O)NC(=O)Nc2cccc(C(=O)N=C(N)N)c2)cc1` [Beispiel 5, 4[3-(Guanidinocarbonyl)phenylaminocarbonylaminosulfonyl]-benzoylguanidin], the IC50 was 10 µM.

For “4-(4-Guanidinocarbonyl)phenylsulfamoyl-benzoylguanidin [Beispiel 3]”, the IC50 was 1.5 µM.

`NC(N)=NC(=O)c1ccc(-c2ccc(C(=O)N=C(N)N)cc2)cc1` [Beispiel 4, Biphenyl-4,4'-dicarbonsäure-diguanidid] showed an IC50 of 2 µM.

`NC(N)=NC(=O)c1ccc(-c2cccc(C(=O)N=C(N)N)c2)cc1` [Beispiel 1, 3-(4-Guanidinocarbonyl)phenyl-benzoylguanidin] was tested, and the IC50 was 1.5 µM.

`NC(N)=NC(=O)c1ccc(-c2ccccc2C(=O)N=C(N)N)cc1` [Beispiel 2, 2-(4-Guanidinocarbonyl)phenyl-benzoylguanidin] showed an IC50 of 5 µM.
